pEC50, pIC50: −log10 of the molar value. Where a name gives a salt, the structure may show the parent alone. Read-outs that look alike come from different tables or passages of the source.
Columns and labels:
[1] = molecular target: T1, proteasome in Molt-4 cells (human leukemia) (Homo sapiens, UniProt P20618+P28074); assay type: cell-based
T1 sequence (P28074 60-263): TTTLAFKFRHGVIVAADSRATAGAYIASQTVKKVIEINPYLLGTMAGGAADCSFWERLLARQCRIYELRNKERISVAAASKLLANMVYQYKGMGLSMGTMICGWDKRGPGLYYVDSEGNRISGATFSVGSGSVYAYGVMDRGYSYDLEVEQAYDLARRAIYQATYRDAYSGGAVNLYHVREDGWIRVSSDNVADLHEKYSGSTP
T1 sequence (P20618 29-241): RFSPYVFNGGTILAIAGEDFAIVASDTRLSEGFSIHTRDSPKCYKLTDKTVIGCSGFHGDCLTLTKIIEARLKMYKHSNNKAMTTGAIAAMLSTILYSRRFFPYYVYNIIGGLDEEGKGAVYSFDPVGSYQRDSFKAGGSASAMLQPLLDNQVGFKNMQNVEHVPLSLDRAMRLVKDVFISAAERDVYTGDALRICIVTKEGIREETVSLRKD
Outline: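 Intact Molt-4 cells (6×10^6 cells/mL) in HEPES-buffered saline were preincubated with inhibitor 15 min at 37 °C, then given cell-permeable MeOSuc-FLF-AFC at 25 μM final.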

[2] = molecular target: T2, 20S Human Erythrocyte Proteasome (HEP) (Homo sapiens, UniProt P20618+P28074); assay: Chymotrypsin-like activity of 20S Human Erythrocyte Proteasome (HEP), IC50 determination; assay type: biochemical; settings: assay of Example C, inhibition of HEP
T2 construct: 20S Human Erythrocyte Proteasome (HEP), purchased from Immatics Biotechnologies Inc; purchased Immatics Biotechnologies Inc., Tübingen, Germany; host or cells: human erythrocytes (natural source)
Outline: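 20S proteasome at 0.2 μg/mL (about 0.6 nM catalytic sites) in 20 mM Tris with 0.04% SDS, preincubated 15 min at 37° C with inhibitor before Suc-LLVY-AMC (100 μM final). AMC fluorescence read in the linear range; triplicates, IC50 from concentration series.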

[3] = assay of Example E, inhibition of MOLT4; read-out: MOLT4 (EC50)

CC(C)C[C@H](NC(=O)[C@@H](NC(=O)c1ccc2ccccc2c1)[C@@H](C)O)B(O)O [E.3.1, Boronic acid, [(1R)-1-[[(2S,3R)-3-hydroxy-2-[(2-naphthoyl)amino]-1-oxobutyl]amino]-3-methylbutyl]]
pEC50 [1, 3]: > 6.70 | pIC50 [2]: > 8.00

Cc1ccc(/C=C/C(=O)N[C@@H](CCCNC(=N)N[N+](=O)[O-])C(=O)N[C@@H](CC(C)C)B2O[C@@H]3C[C@@H]4C[C@@H](C4(C)C)[C@]3(C)O2)cc1 [D.3.62, 3-(4-Methylphenyl)acrylamide,N-[(1S)-1-[[[(1R)-1-[(3aS,4S,6S,7aR)-hexahydro-3a,5,5-trimethyl-4,6-methano-1,3,2-benzodioxaborol-2-yl]-3-methylbutyl]amino]carbonyl]-4-[[imino(nitroamino)methyl]amino]butyl]]
pEC50 [1, 3]: > 6.70 | pIC50 [2]: > 8.00

CCCCc1ccc(C(=O)N[C@@H](CC(N)=O)C(=O)N[C@@H](CC(C)C)B(O)O)cc1 [E.1.28, Boronic acid, [(1R)-1-[[(2S)-3-carbamoyl-2-[4-butyl(benzoyl)amino]-1-oxopropyl]amino]-3-methylbutyl]]
pEC50 [1, 3]: 5.70 to 6.70 | pIC50 [2]: > 8.00

CCCCc1ccc(C(=O)N[C@@H](CNC(=O)c2cnccn2)C(=O)N[C@@H](CC(C)C)B(O)O)cc1 [E.5, Boronic Acid, [(1R)-1-[[(2S)-3-(2-pyrazincarbonylamino)-2-[(4-butylbenzoylamino)]-1-oxopropyl]amino]-3-methylbutyl]]
pEC50 [1, 3]: > 6.70 | pIC50 [2]: > 8.00

CCCCc1ccc(C(=O)N[C@@H](CNC(=O)Cc2ccc(OC)c(OC)c2)C(=O)N[C@@H](CC(C)C)B2O[C@@H]3C[C@@H]4C[C@@H](C4(C)C)[C@]3(C)O2)cc1 [D.24.14]
pEC50 [1, 3]: > 6.70 | pIC50 [2]: > 8.00

CC(C)C[C@H](NC(=O)[C@H](CCCNC(=N)N[N+](=O)[O-])NC(=O)CS(=O)(=O)c1ccccc1)B1O[C@@H]2C[C@@H]3C[C@@H](C3(C)C)[C@]2(C)O1 [D.3.185, 2-(Benzenesulfonyl)acetamide,N-[(1S)-1-[[[(1R)-1-[(3aS,4S,6S,7aR)-hexahydro-3a,5,5-trimethyl-4,6-methano-1,3,2-benzodioxaborol-2-yl]-3-methylbutyl]amino]carbonyl]-4-[[imino(nitroamino)methyl]amino]butyl]]
pEC50 [1, 3]: > 6.70 | pIC50 [2]: > 8.00

CC(C)C[C@H](NC(=O)[C@H](CCCNC(=N)N[N+](=O)[O-])NC(=O)CSc1ncccn1)B(O)O [E.2.54, Boronic acid, [(1R)-1-[[(2S)-5-[[imino(nitroamino)methyl]amino]-2-[[2-(pyrimidin-2-ylsulfanyl)acetyl]amino]-1-oxopentyl]amino]-3-methylbutyl]]
pEC50 [1, 3]: < 5.00 | pIC50 [2]: > 8.00

CC(C)C[C@H](NC(=O)[C@H](CCCNC(=N)N[N+](=O)[O-])NC(=O)C1CCCCN1C(=O)OC(C)(C)C)B(O)O (mixture of isomers) [E.2.81, Boronic acid, [(1R)-1-[[(2S)-5-[[imino(nitroamino)methyl]amino]-2-[[(2RS)-1-[(1,1-dimethylethoxy)carbonyl]piperidine-2-carbonyl]amino]-1-oxopentyl]amino]-3-methylbutyl]]
pEC50 [1, 3]: 5.00 to 5.70 | pIC50 [2]: > 7.00

CCCCCC/C=C/C(=O)N[C@@H](CCCNC(=N)N[N+](=O)[O-])C(=O)N[C@@H](CC(C)C)B(O)O [E.2.19, Boronic acid, [(1R)-1-[[(2S)-5-[[imino(nitroamino)methyl]amino]-2-[(non-2-enoyl)amino]-1-oxopentyl]amino]-3-methylbutyl]]
pEC50 [1, 3]: 5.00 to 5.70 | pIC50 [2]: > 8.00

CCOC(=O)/C=C/C(=O)N[C@@H](CCCNC(=N)N[N+](=O)[O-])C(=O)N[C@@H](CC(C)C)B(O)O [E.1.1, Boronic acid, [(1R)-1-[[(2S)-5-[[imino(nitroamino)methyl]amino]-2-[((2E)-3-ethoxycarbonyl-1-oxoprop-2-enyl)amino]-1-oxopentyl]amino]-3-methylbutyl]]
pEC50 [1, 3]: < 5.00 | pIC50 [2]: > 8.00

CCCCCC/C=C/CC(=O)N[C@@H](CCCNC(=N)N[N+](=O)[O-])C(=O)N[C@@H](CC(C)C)B1O[C@@H]2C[C@@H]3C[C@@H](C3(C)C)[C@]2(C)O1 [D.3.70, (E)-Dec-3-enoic acid amide,N-[(1S)-1-[[[(1R)-1-[(3aS,4S,6S,7aR)-hexahydro-3a,5,5-trimethyl-4,6-methano-1,3,2-benzodioxaborol-2-yl]-3-methylbutyl]amino]carbonyl]-4-[[imino(nitroamino)methyl]amino]butyl]]
pEC50 [1, 3]: > 6.70 | pIC50 [2]: > 8.00

CC(C)C[C@H](NC(=O)[C@@H](NC(=O)c1cnccn1)[C@@H](C)O)B1O[C@@H]2C[C@@H]3C[C@@H](C3(C)C)[C@]2(C)O1 [D.8.4, 2-Pyrazinecarbossamide, N-[(1S,2R)-1-[[[(1R)-1-[(3aS,4S, 6S,7aR)-hexahydro-3a,5,5-trimethyl-4,6-methano-1,3,2-benzodioxaborol-2-yl]-3-melthylbutyl]amino]carbonyl]-2-hydroxypropyl]]
pEC50 [1, 3]: > 6.70 | pIC50 [2]: > 7.00

CCCCCCCOc1ccc(NC(=O)N[C@@H](CCCNC(=N)N[N+](=O)[O-])C(=O)N[C@@H](CC(C)C)B(O)O)cc1 [E.2.79, Boronic acid, [(1R)-1-[[(2S)-5-[[imino(nitroamino)methyl]amino]-2-[3-[4-(heptyloxy)phenyl]-ureido]-1-oxopentyl]amino]-3-methylbutyl]]
pEC50 [1, 3]: 5.70 to 6.70 | pIC50 [2]: > 8.00

CC(C)C[C@H](NC(=O)[C@H](CCCNC(=N)N[N+](=O)[O-])NC(=O)C(C)c1ccccc1)B(O)O (mixture of isomers) [D.7.4, Boronic acid, [(1R)-1-[[(2S)-5-[[imino(nitroamino)methyl]amino]-2[((2RS)-2-phenylpropanoyl)amino]-1-oxopentyl]amino]-3-methylbutyl]]
pEC50 [1, 3]: < 5.00 | pIC50 [2]: > 8.00

CC(C)C[C@H](NC(=O)[C@H](CCCNC(=N)N[N+](=O)[O-])NC(=O)COc1ccc(Br)cc1)B(O)O [E.2.77, Boronic acid, [(1R)-1-[[(2S)-5-[[imino(nitroamino)methyl]amino]-2-[[2-(4-bromophenoxy)acetyl]amino]-1-oxopentyl]amino]-3-methylbutyl]]
pEC50 [1, 3]: 5.00 to 5.70 | pIC50 [2]: > 8.00

COCCOCC(=O)N[C@@H](CCCNC(=N)N[N+](=O)[O-])C(=O)N[C@@H](CC(C)C)B(O)O [E.1.6, Boronic acid, [(1R)-1-[[(2S)-5-[[imino(nitroamino)methyl]amino]-2-[[2-(2-methoxyethoxy)acetyl]amino]-1-oxopentyl]amino]-3-methylbutyl], HCl salt]
pEC50 ([1]; read-out: MOLT4 (EC50); assay of Example E, inhibition of MOLT4): 5.00 to 5.70 | pIC50 [2]: > 7.00

C/C(=C\c1ccccc1)C(=O)N[C@@H](CCCNC(=N)N[N+](=O)[O-])C(=O)N[C@@H](CC(C)C)B(O)O [D.7.2, Boronic acid, [(1R)-1-[[(2S)-5-[[imino(nitroamino)methyl]amino]-2-[((E)-2-methyl-3-phenylacryl)amino]-1-oxopentyl]amino]-3-methylbutyl]]
pEC50 [1, 3]: 5.00 to 5.70 | pIC50 [2]: > 8.00

CC(C)C[C@H](NC(=O)[C@H](CCCNC(=N)N[N+](=O)[O-])NC(=O)C1CC1)B(O)O [D.7.30, Boronic acid, [(1R)-1-[[(2S)-5-[[imino(nitroamino)methyl]amino]-2-[(cyclopropanecarbonyl)amino]-1-oxopentyl]amino]-3-methylbutyl]]
pEC50 [1, 3]: < 5.00 | pIC50 [2]: > 7.00

CC(C)C[C@H](NC(=O)[C@@H](NC(=O)CCCc1ccccc1)[C@@H](C)O)B(O)O [E.1.23, Boronic acid, [(1R)-1-[[(2S,3R)-3-hydroxy-2-[(4-phenylbutanoyl)amino]-1-oxobutyl]amino]-3-methylbutyl]]
pEC50 [1, 3]: > 6.70 | pIC50 [2]: > 8.00

CCCCc1ccc(C(=O)N[C@H](C(=O)N[C@@H](CC(C)C)B(O)O)[C@@H](C)O)nc1 [E.4.2, Boronic acid, [(1R)-1-[[(2S,3R)-3-hydroxy-2-[(5-butyl-pyridine-2-carbonyl)amino]-1-oxobutyl]amino]-3-methylbutyl]]
pEC50 [1, 3]: > 6.70 | pIC50 [2]: > 7.00

CCc1ccc(CCC(=O)N[C@@H](CCCNC(=N)N[N+](=O)[O-])C(=O)N[C@@H](CC(C)C)B(O)O)cc1 [E.2.78, Boronic acid, [(1R)-1-[[(2S)-5-[[imino(nitroamino)methyl]amino]-2-[[3-(4-ethylphenyl)propanoyl]amino]-1-oxopentyl]amino]-3-methylbutyl]]
pEC50 [1, 3]: 5.00 to 5.70 | pIC50 [2]: > 8.00

Cc1ccc(S(=O)(=O)CC(=O)N[C@@H](CCCNC(=N)N[N+](=O)[O-])C(=O)N[C@@H](CC(C)C)B2O[C@@H]3C[C@@H]4C[C@@H](C4(C)C)[C@]3(C)O2)cc1 [D.3.182]
pEC50 [1, 3]: 5.70 to 6.70 | pIC50 [2]: > 7.00

CCCCCCCCCC(=O)N[C@@H](CNS(=O)(=O)c1ccc(F)cc1)C(=O)N[C@@H](CC(C)C)B(O)O [E.5.12, Boronic acid, [(1R)-1-[[(2S)-3-[4-fluoro-benzenesulfonamide]-2-[(decanoyl)amino]-1-oxopropyl]amino]-3-methylbutyl]]
pEC50 [1, 3]: > 6.70 | pIC50 [2]: > 8.00
